According to PMC13193486, “Phycocyanobilin biosynthesis in Galdieria sulphuraria requires isomerization of phycoerythrobilin synthesized by bilin reductases” (The Febs Journal, 2026):

Target: T1, CmPCYA (Cyanidioschyzon merolae, UniProt M1V4R9)
T1 construct: gene CYME_CMG110C; N-terminal GST-tag, pGEX-6P-1, co-expressed with pGro7 chaperones in E. coli BL21(DE3)
T1 sequence (M1V4R9 1-325): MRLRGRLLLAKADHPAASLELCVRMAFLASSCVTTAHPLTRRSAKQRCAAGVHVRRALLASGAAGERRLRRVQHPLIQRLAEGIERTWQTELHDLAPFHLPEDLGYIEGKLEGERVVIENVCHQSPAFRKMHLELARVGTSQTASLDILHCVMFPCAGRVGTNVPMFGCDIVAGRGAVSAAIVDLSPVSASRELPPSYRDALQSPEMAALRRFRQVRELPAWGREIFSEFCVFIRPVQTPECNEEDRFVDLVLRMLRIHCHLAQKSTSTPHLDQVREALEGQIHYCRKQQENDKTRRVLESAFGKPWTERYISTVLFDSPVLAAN
Test: anaerobic bilin reductase assay, HPLC
Format: biochemical
Settings: BV as substrate; PetF, FNR, NADPH-regenerating system; 20 °C

CC=C1C(=Cc2[nH]c(C=C3N=C(C=C4NC(=O)C(CC)=C4C)C(C)=C3CCC(=O)O)c(CCC(=O)O)c2C)NC(=O)C1C (stereo not shown) [PCB]
anaerobic bilin reductase assay, HPLC: catalyzing the reduction of BV to PCB (Fig. 7B: CmPCYA)
